Assay results: US10994017B2, “Nerve labeling compositions and uses thereof” (Avelas Biosciences, Inc., priority 2016, dated 2021)
Square brackets hold non-standard residues; d marks the D form. Peptide text beside a SMILES is read from it. * marks the point of attachment. X2 = O=C(NCCN1C(=O)CC(*)C1=O)c1ccc(C(=O)O)c(-c2c3ccc(=O)cc-3oc3cc(O)ccc23)c1; X1 = O=C(O)c1ccc(C(=O)*)cc1-c1c2ccc(=O)cc-2oc2cc(O)ccc12

Tests used:
[1] = system: dorsal subcutaneous cervical or thoracic nerves; assay: In vivo fluorescence imaging of dorsal subcutaneous cervical and thoracic nerves (FIG. 2, FIG. 3); set-up: species or system mouse; details: FIG. 2 and FIG. 3, fluorescence versus reflected light images
Description: (§1) Nerves are more clearly visualized utilizing NDM-38.

[2] = system: renal nerve; assay: In vivo fluorescence imaging of renal nerve (FIG. 5); set-up: species or system mouse; details: FIG. 5, fluorescence versus reflected light images
[3] = system: splanchic nerve; assay: In vivo fluorescence imaging of splanchnic nerve (FIG. 4); details: FIG. 4, mouse, fluorescence versus reflected light images
Description: as §1

[4] = system: sciatic nerve; assay: Fluorescence contrast in murine nerves: in vivo imaging of sciatic nerve after intravenous injection; set-up: species or system mouse; details: for N/B contrast compared to the equivalent NDMs comprising L-amino acids / N/S contrast compared to the equivalent NDMs comprising L-amino acids: retro-inverso (D-amino acids) versus NDM-39, NDM-41
Experimental: The visualization contrast activity of fluorescent peptides for nerve imaging was assessed using male immunocompetent hairless SKH1-E mice purchased from Charles River (Charles River, Wilmington, Mass. 01887, USA). SKH1-E mice weighing 25-30 grams were housed in group of 4 in individually ventilated IVC disposable cages (Innovive, Inc., San Diego, Calif. 92121, USA) and maintained under controlled environmental conditions (12-h/12-h light/dark cycle; temperature of 64-79F and relative humidity of 30-70%) for at least 5 days before experimental use. Animals had free access to standard laboratory rodent diet (Cat. #2018, Teklad Global 18% Protein Rodent Diet; Harlan Laboratories, Inc. Indianapolis, Ind. 46250, USA) and acidified drinking water throughout the course of study. All experiments were carried out under Institutional Animal Care and Use Committee (IACUC) approved protocol.
On the day of study, each involved mouse was weighed, examined for general condition and restrained using a rotating tail injector (Cat. #RTI, Braintree Scientific, Braintree, Mass. 021585, USA) for intravenous (tail vein) injection of test compound in conscious animal. The test compounds were tested (25-150 nmol in 0.1 mL/mouse) was then injected intravenously in mouse using a 28G1/2 Insulin syringe (Cat. #14-826-79, Becton Dickinson and Company, Franklin Lakes, N.J. 07417, USA). After the intravenous injection, each involved mouse was housed back in its assigned cage and kept under controlled environmental conditions before being examined for fluorescence labeling of the sciatic nerve.
Two hours after the intravenous injection, each involved mouse was terminally anesthetized with a mixture of ketamine HCl (Zetamine™, 100 mg/mL, ANADA 200-055 approved by FDA, NDC-13985-702-10; VETone®, Boise, Id. 83705, USA) and xylazine (Rompun™, 100 mg/mL, NADA-047-956 approved by FDA, Bayer HealthCare, LLC, Animal Health Divison, KS 66201, USA) which consisted of a combination of 100 mg/kg of ketamine with 10 mg/kg of xylazine administered intraperitoneally. The terminally anesthetized mouse was transferred on the piece of cork (4×4 inches, Quartet®, ACCO Brands, Lincolnshire, Ill. 60069, USA) for blunt dissection of sciatic nerve after checking the toe pinch reflex. The sciatic nerve was exposed by removing skin from the dorsal surface of the thigh and blunt dissecting the muscles parallel and posterior to the femur after checking […] (no reflex to toe pinch) in terminally anesthetized mouse. Full body imaging of the terminally anesthetized mouse with both sciatic nerves exposed was then performed using a computerized UVP BioSpectrum® 500 Imaging System fitted with appropriate excitation/emission filters for fluorescein, Cy5, or other dye detection and a VisionWorks® LS Software (UVP-BioSpectrum Imaging System, Upland, Calif., USA) for image acquisition and analysis. After the mouse full body imaging, the exposed and saline moisturized sciatic nerves were subsequently imaged using computerized fluorescence stereomicroscope (SZX 10, Olympus Optical, CO, LTD, Japan) interfaced with PictureFrame™, an image processing application suitable for image acquisition and analysis (Optronics, Goleta, Calif. 93117) or an in-house built Microscope Imaging System interfaced with Spot Software 5.0 (SPOT Imaging Solutions, Sterling Heights, Mich. 48314) for image acquisition and analysis. All above-mentioned Imaging Systems were equipped with appropriate excitation/emission filters for fluorescein, Cy5, or other dye detection. Following the imaging session, all captured images of fluorescently labeled sciatic nerves were examined and analyzed using the image processing program Image J to generate quantitative fluorescence data. For each involved mouse, fluorescence intensity of each examined sciatic nerve was acquired by drawing an area on the surface of the exposed sciatic nerve using Image J features and capabilities. […]

| SMILES | fluorescence contrast (nerve/background) of mouse dorsal subcutaneous cervical or thoracic nerves [1] | fluorescence contrast (nerve/background) of mouse renal nerve [2] | fluorescence contrast (nerve/background) of splanchic nerve [3] | N/B contrast relative to NDMs with glycine linkers ([4]; alanine linker versus NDM-44) | N/S contrast relative to NDMs with glycine linkers ([4]; alanine linker versus NDM-44) | N/B contrast compared to the equivalent NDMs comprising L-amino acids [4] | N/S contrast compared to the equivalent NDMs comprising L-amino acids [4] | fluorescence contrast (nerve/background) of mouse sciatic nerve ([4]; FIG. 1, fluorescence versus reflected light images) |
| --- | --- | --- | --- | --- | --- | --- | --- | --- |
| CC(=O)N[C@H](CCCCNC(=O)c1ccc(C(=O)O)c(-c2c3ccc(=O)cc-3oc3cc(O)ccc23)c1)C(=O)N[C@H](C)C(=O)N[C@H](C)C(=O)N[C@H](C)C(=O)N[C@@H](C(=O)N[C@H](Cc1c[nH]cn1)C(=O)N[C@H](CCC(=O)O)C(N)=O)[C@H](C)O [NDM-38, Ac-[D-Lys(6FAM)]-(D-Ala)-(D-Ala)-(D-Ala)-(D-Thr)-(D-His)-(D-Glu)-NH2] (Ac-[dK](X1)[dA][dA][dA][dT][dH][dE]-NH2) | very high fluorescence contrast | very high fluorescence contrast | very high fluorescence contrast | higher | higher | substantially higher | substantially higher | – |
| CC(=O)N[C@H](CSC1CC(=O)N(CCNC(=O)c2ccc(C(=O)O)c(-c3c4ccc(=O)cc-4oc4cc(O)ccc34)c2)C1=O)C(=O)N[C@H](C)C(=O)N[C@H](C)C(=O)N[C@H](C)C(=O)N[C@@H](C(=O)N[C@H](Cc1c[nH]cn1)C(=O)N[C@H](CCC(=O)O)C(N)=O)[C@H](C)O (stereo partly drawn) [NDM-40, Ac-[D-Cys(6FAM)]-(D-Ala)-(D-Ala)-(D-Ala)-(D-Thr)-(D-His)-(D-Glu)-NH2] (Ac-[dC](X2)[dA][dA][dA][dT][dH][dE]-NH2) | – | – | – | – | – | substantially higher | substantially higher | very high fluorescence contrast |
